Nine compounds from paper PMC11025159 (Journal of Translational Medicine, 2024) can be followed below.

pIC50: −log10 of the molar value.

One experiment relates to HEK-293. The experiment is described as follows: MTT cell viability assay HEK-293. Type of experiment: cell-based, human. To be noted: read-out: IC50 HEK-293; MTT, 48 h; normal cell line. The protocol:
(§1) Cell viability was evaluated using an MTT colorimetric assay. Cells were seeded (10^5 cells/mL) in 96-well plates and allowed to grow overnight at 37 ℃ with 5% CO2 in a cell-culture incubator. On the following day, the cells were treated with small molecules at different concentrations (0.2–10 micro-molar) or vehicle (DMSO). Cells were then further incubated for 48 h.

Another experiment relates to HCT-116. Briefly: MTT cell viability assay HCT-116. Type of experiment: cell-based, human. The note with it: 48 h. How it is done: as §1
(Tetrazolium dyes change colour on reduction, which living cells bring about.)

The target in the next experiment is T1, JAK3 (Homo sapiens, UniProt P52333).
T1 construct: purchased Promega Corporation V3701
T1 sequence (P52333 1-1124): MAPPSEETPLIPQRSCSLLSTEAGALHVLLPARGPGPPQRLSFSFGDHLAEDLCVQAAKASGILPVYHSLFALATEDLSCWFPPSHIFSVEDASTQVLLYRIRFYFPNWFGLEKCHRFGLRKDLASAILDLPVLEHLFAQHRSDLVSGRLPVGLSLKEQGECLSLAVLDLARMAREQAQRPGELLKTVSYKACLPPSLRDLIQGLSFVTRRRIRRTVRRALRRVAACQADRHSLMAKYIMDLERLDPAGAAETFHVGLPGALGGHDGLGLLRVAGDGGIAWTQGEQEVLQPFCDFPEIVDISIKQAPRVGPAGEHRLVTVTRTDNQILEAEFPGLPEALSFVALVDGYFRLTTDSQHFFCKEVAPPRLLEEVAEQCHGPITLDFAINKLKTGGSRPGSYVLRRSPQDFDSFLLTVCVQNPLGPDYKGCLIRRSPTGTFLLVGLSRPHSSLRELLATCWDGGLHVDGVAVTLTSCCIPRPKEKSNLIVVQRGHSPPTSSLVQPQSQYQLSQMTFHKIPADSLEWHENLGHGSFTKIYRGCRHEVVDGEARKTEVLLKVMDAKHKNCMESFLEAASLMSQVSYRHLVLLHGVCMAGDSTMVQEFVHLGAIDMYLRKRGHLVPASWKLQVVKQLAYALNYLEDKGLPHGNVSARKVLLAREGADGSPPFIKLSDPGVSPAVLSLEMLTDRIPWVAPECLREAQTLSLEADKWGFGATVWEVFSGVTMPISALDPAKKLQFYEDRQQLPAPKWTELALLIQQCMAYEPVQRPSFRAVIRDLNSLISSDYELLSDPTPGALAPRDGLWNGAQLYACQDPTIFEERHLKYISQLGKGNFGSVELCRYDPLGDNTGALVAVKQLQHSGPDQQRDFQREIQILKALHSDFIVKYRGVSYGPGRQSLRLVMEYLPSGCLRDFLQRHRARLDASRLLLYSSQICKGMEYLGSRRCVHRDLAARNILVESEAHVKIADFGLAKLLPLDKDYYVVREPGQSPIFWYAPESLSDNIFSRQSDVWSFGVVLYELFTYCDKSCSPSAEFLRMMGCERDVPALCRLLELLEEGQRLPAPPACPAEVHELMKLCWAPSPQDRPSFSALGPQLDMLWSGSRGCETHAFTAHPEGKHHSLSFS
The experiment is described as follows: Cell-free kinase assay JAK3. Type of experiment: biochemical. To be noted: structure-activity statement. The protocol:
The cell-free kinase assays of small molecules were determined by following the manufacturer-recommended protocols. Different concentrations in triplicate were used to determine the IC50 value of the hit molecules (active molecules). For data analysis, GraphPad Prism V9.5 Software and a sigmoidal dose–response (variable slope) equation were used. Each value represents an average of three replicates per concentration.

The next experiment deals with Mia PaCa-2. Briefly: MTT cell viability assay Mia PaCa-2. Type of experiment: cell-based, human. The note with it: 48 h. How it is done:
as §1

Another experiment deals with MCF-7. Briefly: MTT cell viability assay MCF-7. Format: cell-based, human. The note with it: 48 h. The protocol:
as §1

A further experiment concerns Panc-2. The experiment is described as follows: MTT cell viability assay Panc-2. Type of experiment: cell-based. To be noted: 48 h. The protocol: as §1
The test system of a further experiment is A549. The experiment is described as follows: MTT cell viability assay A549. Format: cell-based, human. To be noted: 48 h. The protocol:
as §1

As usually defined, the pIC50 is the IC50 on a negative log10 scale, so that one unit is a factor of ten. Consider `Fc1cccc(-c2cnc3[nH]cc(-c4ccnc(NC5CC5)n4)c3c2)c1` [MJ06], for which the pIC50 with HEK-293 was under 4.00; with HCT-116, 5.82; in the experiment with Mia PaCa-2, 5.44; with MCF-7 it was 5.48; with Panc-2, 5.13; with A549, 5.37. Moreover, the “inhibitory activity against JAK3 in kinase assays and in MTT assays” value (“inhibitory activity against JAK3” for short) on JAK3 is listed as “significant inhibitory activity”.

As for `CSc1ccc(-c2cnc3[nH]cc(-c4ccnc(NC5CC5)n4)c3c2)cc1` [MJ02], the pIC50 was under 4.00 with HEK-293; 5.51 with HCT-116; 5.15 in the experiment with Mia PaCa-2; 5.74 with MCF-7; 5.33 with Panc-2; 5.50 with A549. On JAK3, the “inhibitory activity against JAK3” value is recorded as “significant inhibitory activity”.

For the compound `c1coc(-c2cnc3[nH]cc(-c4ccnc(NC5CC5)n4)c3c2)c1` [MJ01], the pIC50 with HEK-293 is under 4.00; in the experiment with HCT-116 it was 5.72; with Mia PaCa-2, 5.08; with MCF-7 it was 5.78; in the experiment on Panc-2, 5.50; in the experiment on A549, 6.33. In addition, at JAK3, the “inhibitory activity against JAK3” value is listed as “significant inhibitory activity”.

As to `Fc1ccc(-c2cnc3[nH]cc(-c4ccnc(NCCN5CCOCC5)n4)c3c2)cc1` [MJ10], the pIC50 in the experiment on HEK-293 was under 4.00; in the experiment on HCT-116, 5.27; in the experiment with Mia PaCa-2, 5.17; with MCF-7, 5.06; in the experiment on Panc-2 it was 4.47; with A549, 5.16. In addition, the “inhibitory activity against JAK3” value at JAK3 is given as “significant inhibitory activity”.

As to `Nc1nccc(-c2c[nH]c3ncc(-c4cccc(F)c4)cc23)n1` [MJ07], the pIC50 in the experiment with HEK-293 is under 4.00; in the experiment with HCT-116, 5.20; in the experiment on Mia PaCa-2, 5.49; in the experiment on MCF-7, 5.86; in the experiment with Panc-2, 5.51; in the experiment on A549, 5.26. Further, the “inhibitory activity against JAK3” value against JAK3 is recorded as “less active”.

As to `c1cncc(-c2cnc3[nH]cc(-c4ccnc(NCCN5CCOCC5)n4)c3c2)c1` [MJ09], the pIC50 was under 4.00 with HEK-293; 5.49 with HCT-116; 5.67 in the experiment on Mia PaCa-2; 4.94 with MCF-7; 4.58 in the experiment on Panc-2; 5.24 in the experiment on A549. For the same compound, the “inhibitory activity against JAK3” value at JAK3 was “significant inhibitory activity”.

With `Clc1ccc(-c2cnc3[nH]cc(-c4ccnc(NC5CC5)n4)c3c2)cc1` [MJ05], the pIC50 was under 4.00 in the experiment with HEK-293; 5.06 in the experiment on HCT-116; 5.18 with Mia PaCa-2; 5.35 in the experiment with MCF-7; 5.11 in the experiment on Panc-2; 5.43 with A549. The “inhibitory activity against JAK3” value against JAK3 is “significant inhibitory activity”.

Take `Nc1nccc(-c2c[nH]c3ncc(-c4cccc(C(F)(F)F)c4)cc23)n1` [MJ08]: the pIC50 in the experiment with HEK-293 was under 4.00; in the experiment with HCT-116, 5.93; with Mia PaCa-2 it was 5.27; in the experiment on MCF-7, 5.16; with Panc-2, 4.71; in the experiment with A549, 5.29. For the same compound, the “inhibitory activity against JAK3” value against JAK3 is “less active”.

As for `CSc1ccccc1-c1cnc2[nH]cc(-c3ccnc(NC4CC4)n3)c2c1` [MJ03], the negative logarithm of the IC50 (pIC50) with HEK-293 was under 4.00; in the experiment on HCT-116 it was 5.09; in the experiment on Mia PaCa-2 it was 4.74; in the experiment with MCF-7 it was 4.99; with Panc-2, 4.96; in the experiment on A549 it was 5.54. Moreover, the “inhibitory activity against JAK3” value at JAK3 was “significant inhibitory activity”.
